In patent US20060167026A1, “Antipsychotic molecular-targeting epithelial growth factor receptor” (Hiroyuki Nawa, priority 2003, published 2006):

Experiments:
[1] = tested on: rats to which EGF was administered as neonates (model for cognitive dysfunction); assay: prepulse inhibition of acoustic startle in rats to which EGF was administered as neonates; type: in vivo, rat
Method: Newborn Sprague-Dawley (SD) rats were purchased from SLC (Shizuoka, Japan). Recombinant human EGF (Higeta-Syoyu Co, Chiba Japan) and cytochrome c (Sigma Chemical Co; control) were dissolved in physiologic saline. These agents were administered subcutaneously to rat pups on postnatal days 2, 4, 6, 8, and 10 at the nape of the neck at a dose of 1.75 μg of 1 g body weight).
Acoustic startle amplitudes and PPI responses were measured in a startle reaction chamber for small animals (SR-Lab Systems, San Diego Instruments, San Diego, Calif.) from postnatal week 3. Acoustic startle was induced with acoustic stimuli (120 dB), in combination with three different prepulse intensities of 5-, 10-, and 15-dB-above background noise (75, 80, 85 dB). The 120 dB pulse was followed 100 ms after one of the prepulses was given. Each rat was placed in the startle chamber and initially acclimatized for 5 min with background noise alone. Prepulse inhibition (PPI) of a startle response was calculated as: 100−[(startle response on prepulse pulse stimulus trials−no stimulus trials)/(pulse alone trials−no stimulus trials)×100].
SD rats treated with EGF or cytochrome c (control) were tested on postnatal days 56-66. […] The same concentration of DMSO solution was used as a control.
After anesthesia, a 28 gauge cannula was inserted into the site of rat skull (0.3 mm anterior and 1.2 mm right lateral measured from the bregma, 4.5 mm below the skull) and glued to the skull with dental cement. The end of cannula was connected to an osmotic minipump (250 μl, effective for 14 days model 2002; Azla Corp.) via vinyl tubing. Pumps were implanted subcutaneously in the nape of the neck. […] The scalp incision was closed with surgical suture and staples, and rats were maintained to wait recovery from the operation.
Seven days after administration, prepulse inhibition of the rats was monitored with 85 dB prepulse intensity using the acoustic startle measurement chamber for small animals (SR-Lab Systems, San Diego Instruments, San Diego, Calif.).

[2] = tested on: rat model for cognitive dysfunction (EGF administered to neonatal rats); assay: latent inhibition in two-way active avoidance, neonatally EGF-treated rat model; type: in vivo
Method: The rat model for cognitive/behavioral dysfunction was prepared as EGF was administered to neonatal rats as described in the method of Experiment 1. SD rats were subjected to the two-way active avoidance task in an automated shuttle box (Muromachi-kiki, Tokyo, Japan) on postnatal weeks 6-8. The conditioned stimulus (CS) was an 80-dB tone and house light on and off. Rats learned the following task: When the CS was on, the animals had to cross to the other side of the shuttle box apparatus (avoidance response) in order to turn the CS off and avoid the appearance of the unconditioned stimulus (US). […] Rats were given 6 sessions of two-way active-avoidance conditioning (10 trials per session)(total 60 trials). Active-avoidance learning was evaluated by scoring the number of avoidance rate to CS.
Before this learning test was conducted, the CS of an 80-dB tone and house light had been given to normal rats without delivering US (pre-conditioning), following avoidance learning was impaired in these rats (FIG. 5 top; open circle). This is latent inhibition that represents the effect of the pre-exposure of a conditioned stimulus (CS, e.g. tone), preventing the learning of unconditioned stimulus (Russig H et al. Neuropsychopharmacology 26: p 765-777 (2002)).
When the rat model for cognitive/behavioral dysfunction, which is described in the Experiment 1, was exposed to the pre-conditioning. […] Such persistency can be inducible with hallucinogens such as cocaine (Murphy, C. A. et al. Behav Pharmacol. 12:p 13-23 (2001)).

COc1cc2ncnc(Nc3ccc(F)c(Cl)c3)c2cc1OCCCN1CCOCC1 [Compound B, 4-(3-chloro4-fluoroanilino)-7-methoxy-6-(3-morphorinopropoxy) quianozoline]
difference in prepulse inhibition between treated model rats and control animals ([1]; EGF model rats, intraventricular minipump 1 mg/ml, day 7, 85 dB prepulse): no significant differences | effect on abnormal decrease in prepulse inhibition ([1]; EGF model rats, intraventricular osmotic minipump 1 mg/ml, seven days after administration, 85 dB prepulse, compared to solvent-injected group): significantly ameliorated the abnormal decrease in prepulse inhibition | effect on prepulse inhibition in normal control rats ([1]; normal control rats, intraventricular minipump 1 mg/ml, day 7, 85 dB prepulse): had no effects in prepulse inhibition | learning ability of treated model rats relative to normal controls ([2]; EGF model rats, pre-conditioned, two-way active avoidance): indistinguishable from that of normal controls | effect on abnormal increase in latent inhibition ([2]; EGF model rats, pre-conditioned, two-way active avoidance, intraventricular minipump): significantly exert an ameliorative effect on abnormal increase in latent inhibition | learning ability in conditioned avoidance learning ([2]; both normal control rats and model rats, after administration): exhibited better learning ability
